Results taken from paper PMC10447463, “Data-mining unveils structure–property–activity correlation of viral infectivity enhancing self-assembling peptides” (Nature Communications, 2023).

How the values were obtained:
[1] = Aggregate analysis by widefield fluorescence microscopy; assay type: physicochemical
Experimental: 4 µL of 1 mg/mL peptide fibrils solution is added to a 20 µL, 50 µM ThT–solution in PBS. The mixture is incubated for 15 min at RT to allow binding of ThT dye with β–sheet rich structures. For reference PBS (4 µL) was added instead of peptide fibril solution. The samples were placed in black UV Star® 384 microliter well–plates (Greiner bio–one). Fluorescence spectra were recorded on an Infinite® M1000 PRO microplate reader (Tecan) at λem = 488 nm upon excitation at λex = 440 nm with 10 nm bandwidths and multiple reads per well (3×3). Measurements were repeated in triplicates and averaged with standard deviation. A peptide fibril was considered as ThT-active if the fluorescence intensity was at least twice as strong compared to the control (PBS containing 10% DMSO). Zeta-Potential. For the determination of the surface charge of aggregated peptides zeta-potential measurements were conducted with a Zetasizer Nano ZS, Malvern Instruments. Unless stated otherwise the peptides were dissolved from DMSO (10 mg/mL) in PBS (pH 7.4) to concentration of 1 mg/mL and incubated for 1d at RT. Just before the measurement the 60 µL of the peptides were further diluted in 600 µL KCl (aq, 1 mM) in a 1 mL disposable folded capillary cells (DTS–1060, Zetasizer Nano series, Malvern). The zeta potential of the peptides was derived from the electrophoretic mobility based on the Smoluchowski formula. All measurements were averaged over two individually performed experiments and conducted in triplicates for each sample. Aggregate analysis. […] Furthermore, fluorescence microscopy was conducted by staining 1 µL preformed fibrils (1 mg/mL) with 9 µL ThT (50 µM). Brightfield microscopy was performed simultaneously to evaluate aggregation also for non ThT-active fibrils. The measurements were performed on a Leica DMi8 microscope with 10x air objective and equipped with a Leica MC170 HD camera with a filter setting λem = 527/30 nm upon excitation at λex = 480/40 nm) and processed with the Leica LASX software. To quantify size and number of microscopic aggregation of particles > 10 µm^2 at least 3 independently measured images were analyzed via the 3D object counter analysis tool of ImageJ, v 1.53f51. Sum–frequency generation. The SFG experiments were carried out with a femtosecond Ti: Sapphire amplified laser system (Spitfire Ace, Spectra–Physics, 800 nm, 40 fs, 1 kHz) with 5 W output power. We used 2 W to pump an optical parametric amplifier (TOPAS, light conversion) with a non–collinear difference frequency generation stage to generate broadband IR pulses. Another 1 W of the laser output passed through an etalon to generate narrowband visible pulses (10 cm^-1). The incident angles of the visible and IR beams were 36° and 41° with respect to the surface normal, respectively. The visible (13 µJ) and IR (5 µJ) pulses were overlapped spatially and temporally at the sample position. Subsequently, the generated SFG pulse was guided into a spectrograph (Acton SP 300i, Princeton Instruments), and detected with an EMCCD (Newton, Andor Technology). To avoid IR absorption of water vapor, we purged N2 for the measurement. All spectra were collected in the ssp (denoting s-, s- and p-polarized SFG, visible and IR, respectively) polarization combination. The spectra were normalized to the non–resonant signal taken from z–cut quartz after subtracting a background spectrum.
Table S8 Summary of aggregate analysis from widefield microscopy measurements (Figure S32). The Number of aggregated peptides, the median size area, average size area
and the cumulative total size area of all particles (> 10 µm2) in an area of 1330 µm × 1330 µm was determined via automated 3D object counting (ImageJ) in triplicate
measurements (Std. Dev.).
Aggregate Std. Dev. Std. Dev. Std. Dev. Std. Dev.
Sequence Abs. Inf. / Std. Dev. / Count Rate / Std. Dev. Number Aggregate Median Area Median Area Average Area Average Area Total Area/ Total Area/ […]

[2] = Turbidity, derived count rate of scattered light; assay type: physicochemical; conditions: for Count Rate: derived count rate of scattered light (turbidity); for Log10 Count Rate: turbidity, derived count rate of scattered light, data of Figure 2D
[3] = Fig S8 panels A, C, 3 fields of 1330 µm x 1330 µm
[4] = Fig S8 panels B, D, average aggregate area, 3 fields of 1330 µm x 1330 µm
[5] = Fig S8 panels B, D, median aggregate area, 3 fields of 1330 µm x 1330 µm
[6] = Fig S8 panels B, D, 3 fields of 1330 µm x 1330 µm
[7] = Fig S8 panels B, D, widefield fluorescence microscopy, 3 fields of 1330 µm x 1330 µm

Substance	Avg Area in 3 *(1330 µm *1330 µm) ([1]; Fig S8 panels A, C)	Log 10 Number of aggregates in 3 * (1330 µm *1330 µm) ([1]; Fig S8 panels A, C)	Median Area in 3 * (1330 µm *1330 µm) ([1]; Fig S8 panels A, C)	log Avg Area in 3 * ( (1330 µm *1330 µm)) ([1]; Fig S8 panels A, C)	log Median Area in 3 * ( (1330 µm *1330 µm)) ([1]; Fig S8 panels A, C)	log Total Area of all particles in 3 * (1330 µm *1330 µm) ([1]; Fig S8 panels A, C)	Number of aggregates in 3 * (1330 µm *1330 µm) [1, 3]	Avg Area in 3 *(1330 µm *1330 µm) [1, 4]	Median Area in 3 * (1330 µm *1330 µm) [1, 5]	Total Area of all particles in 3 * (1330 µm *1330 µm) [1, 6]	Number of aggregates in 3 * (1330 µm *1330 µm) [1, 7]	Count Rate [2]	Log10 Count Rate [2]
CHLHLQL [CN9]	330.1	1.5563	35.7	2.5187	1.553	4.075	36	330.1	35.7	11885.21533	36	–	–
CKAKAQANMWQ [BL8]	857.7	0.8016	479.9	2.933	2.681	3.735	6.333	857.7	479.9	5432	6.333	–	–
CKFKFQF [BL4]	86.55	2.108	22.111	1.937	1.345	4.0456	128.3	86.55	22.111	11106.98933	128.3	–	–
CKFKFQFNM [BL3]	19.89	2.2313	11.55	1.299	1.063	3.53	170.3	19.89	11.55	3388	170.3	–	–
CKFKFQFW [TM72]	28.12	2.713	16.689	1.449	1.222	4.162	517	28.12	16.689	14537.202	517	–	–
CKFKQFF [CK15]	2578	0.7533	2243	3.411	3.351	4.165	5.667	2578	2243	14606.95267	5.667	–	–
CKFKQFFNM [CK14]	31.08	2.848	15.21	1.4925	1.182	4.34	704	31.08	15.21	21881.13867	704	–	–
CKIKIQI [MG3b]	58.72	2.501	16.48	1.7688	1.2169	4.27	317	58.72	16.48	18614.711	317	–	–
CKIKIQINMWQ	–	–	–	–	–	–	–	–	–	–	–	1881	3.274
CKIKQII [MG4a]	110.6	1.8789	36.476	2.044	1.562	3.923	75.67	110.6	36.476	8372.136	75.67	–	–
CKIKQIINMWQ [MG5a / CK17]	183.3	2.289	91.75	2.263	1.963	4.553	194.7	183.3	91.75	35686.92633	194.7	–	–
CKWKWQW [KB4]	95.93	1.94	29.43	1.982	1.469	3.921	87	95.93	29.43	8346	87	–	–
CQFQFQF [QBL4]	73.07	1.6596	15.07	1.864	1.178	3.523	45.67	73.07	15.07	3337	45.67	–	–
CSISIQI [TM141]	112.5	2.091	18.872	2.051	1.276	4.142	123.3	112.5	18.872	13871.26567	123.3	–	–
KFKFQFNMW	–	–	–	–	–	–	–	–	–	–	–	610.2	2.785
KLKQLL	–	–	–	–	–	–	–	–	–	–	–	319.9	2.505
RGDKIKIQI	–	–	–	–	–	–	–	–	–	–	–	298.1	2.474
